What was measured:
NIH3T3/EGFR vIII cells = experiment: 3D cell culture step (environment without adhesion scaffold), proliferation of NIH3T3/EGFR vIII cells; assay type: cell-based, mouse; settings: for IC50: Mus musculus, 72 h, NIH3T3/EGFR vIII cells, Ultra Low Attachment plate, 3 days, […]-GLO
NIH3T3 cells = experiment: 2D cell culture step (environment with adhesion scaffold), proliferation of NIH3T3 cells; assay type: cell-based; settings: Mus musculus, 72 h; NIH3T3 cells, TC-treated plate, 3 days, […]-GLO; read-out: IC50 2D cell culture step
Procedure: Note that, as a negative control, the NIH3T3 cells at 2×10^3 cells/100 were seeded to the same plate in a volume of 100 μL per well and cultured at 37° C. in the presence of 5% CO2 for 3 days without the addition of the test substance.
Note that, Dulbecco's Modified Eagle Medium supplemented with 5% FBS was used for the culture.
A cell proliferation inhibition rate in the 2D cell culture step was calculated according to (Expression 2) below. Cell proliferation inhibition rate(%)=(1−D/E)×100 (Expression 2)
In the (Expression 2), D denotes the number of viable NIH3T3 cells when the test substance was added, and E denotes the number of viable NIH3T3 cells when the test substance was not added.

SMILES	IC50 (NIH3T3/EGFR vIII cells)	IC50 (NIH3T3 cells)	cell proliferation inhibiting activity compared with AG1478, Gefitinib and Erlotinib (NIH3T3/EGFR vIII cells; 3D cell culture step)
O=C(Nc1ccc(Br)cc1-c1nc2ccccc2[nH]c1=O)c1ccccc1 [Structural Formula (15)]	> 10 µM	> 10 µM	–
Nc1ccc(Cl)cc1-c1nc2ccccc2[nH]c1=O [Structural Formula (6), 3-(2-amino-5-chlorophenyl)hydroquinoxalin-2-one]	0.014 µM	> 10 µM	more significant cell proliferation inhibiting activity
Nc1ccccc1-c1nc2ccccc2[nH]c1=O [Structural Formula (9), 3-(2-aminophenyl)-2(1H)-quinoxalinone]	> 10 µM	> 10 µM	–
Cc1ccc2nc(-c3cc(Br)ccc3N)c(=O)[nH]c2c1 [Structural Formula (2), 3-(2-amino-5-bromophenyl)-7-methylhydroquinoxalin-2-one]	0.1 µM	> 10 µM	–
Nc1ccc(F)cc1-c1nc2ccccc2[nH]c1=O [Structural Formula (7), 3-(2-Amino-5-fluorophenyl)-2(1H)-quinoxalinone]	0.34 µM	> 10 µM	–
CCNc1ccccc1-c1nc2ccccc2[nH]c1=O [Structural Formula (11), 3-[2-(ethylamino)phenyl]-2(1H)-quinoxalinone]	> 10 µM	> 10 µM	–
Cc1ccc(N)c(-c2nc3ccccc3[nH]c2=O)c1 [Structural Formula (4), 3-(2-amino-5-methylphenyl)hydroquinoxalin-2-one]	0.5 µM	> 10 µM	–
CCOC(=O)Cn1c(=O)c(-c2cc(Br)ccc2N)nc2ccccc21 [Structural Formula (14), ethyl 2-[3-(2-amino-5-bromophenyl)-2-oxohydroquinoxalinyl]acetate]	10 µM	> 10 µM	–
